According to paper PMC10313827 (2023):

System: RhoBAST (RNA, aptamer) GGAACCUCCGCGAAAGCGGUGAAGGAGAGGCGCAAGGUUAACCGCCUCAGGUUCC
Assay: fluorescence titration, fixed dye, aptamer varied
Settings: 125 mM KCl, 1 mM MgCl2; 20 mM HEPES pH 7.4, 0.05% Tween 20, 25 °C, 10 nM dye

- KD: 100 ± 8 nM
SMILES: CN(C)S(=O)(=O)N1C(=O)c2ccccc2C12c1ccc(N3CCC3)cc1Oc1cc(N3CCC3)ccc12
